Laboratory results published in patent US9918941B2 (Eastbrand Holding GMBH, priority 2012, dated 2018).

Key:
[1] = tested on: Carrageenin-induced edema in the paw; test: Anti-inflammatory activity, Carrageenin-induced edema in the paw (Winter, Risley and Nuss); type: in vivo, Sprague Dawley rats; details: rats, ± e.s.
gastric mucus = test: Gastric tolerance, Pisanti-Volterra method; type: in vivo, Sprague Dawley rats; details: rats, score 0 (normal stomach) to 6 (perforated ulcer)
Source text: The following scores were attributed according to the type and intensity of the injury observed: • Score 0=Normal stomach without injury; 1=Haemorrhaging points; 2=Haemorrhaging diffusion (reddening of the surface); 3=1-5 small ulcers (<3 mm); 4=Large number of small ulcers or a deep isolated ulceration; 5=Many ulcers of various size; 6=Perforated ulcer. • The degree of gastric injury is defined by the average score; the higher score corresponds to a greater gastric injury

[2] = tested on: acute chemical visceral pain model; test: Analgesic activity, abdominal contraction test with acetic acid (Writhing Test); type: in vivo, Swiss rats; details: inhibition of number of contractions vs control animals
Protocol: Adult male Swiss rats were used in the assay, 28-30 g in weight, 10 animals per treatment group or for each assessed dose level. 1-The analgesic activity/action was assessed by using an acute chemical visceral pain model, the abdominal contraction test with acetic acid (Writhing Test) (Miranda, H; Puig, […]. Synergism between paracetamol and nonsteroidal anti-inflammatory drugs in experimental acute pain. Pain (12) 2006. 22-28) ([…]. The Type of Analgesic-Receptor interaction involved in certain analgesic assays. European Journal of Pharmacology 16 (1971) 63-66. North Holland Publishing Company) […] The antinociceptive activity was expressed as the inhibition percentage of the number of contractions observed in the animals in the groups treated at each of the assessed dose levels, with respect to the number of contractions in the study control animals.

[3] = Degradation / related substances (USP analytical method); type: physicochemical; details: reaction mixture up to 60° C. and gelation, finished microcapsules
Source text: No related substances derived from the degradation of diclofenac mentioned in USP were detected in HPSC.
Only 2% were found above 1000, and only 1% under 250 micron.

## O=C(O)Cc1ccccc1Nc1c(Cl)cccc1Cl [diclofenac potassium]
[1]; Dose: 12.5 mg/kg
  % Inflammation inhibition 1st hour: 37.2 ± 12.2%
  % Inflammation inhibition 2nd hour: 42.5 ± 13.1%
  % Inflammation inhibition 3rd hour: 28.3 ± 9.5%
  % Inflammation inhibition 4th hour: 30.6 ± 9.8%
  % Inflammation inhibition 5th hour: 29.7 ± 10.8%
[1]; Dose: 25.0 mg/kg
  % Inflammation inhibition 2nd hour: 36.4 ± 8.49%
  % Inflammation inhibition 3rd hour: 28.0 ± 13.56%
  % Inflammation inhibition 4th hour: 23.3 ± 6.66%
  % Inflammation inhibition 5th hour: 15.7 ± 5.61%
[1]; Dose: 50.0 mg/kg
  % Inflammation inhibition 2nd hour: 45.8 ± 8.3%
  % Inflammation inhibition 3rd hour: 41.4 ± 6.9%
  % Inflammation inhibition 4th hour: 47.2 ± 5.2%
  % Inflammation inhibition 5th hour: 43.2 ± 4.5%
Gastric mucus; Dose: 12.5 mg/kg
  Degree of Gastric Injury Avg. score ± e.s.: 2.64 ± 0.59
Gastric mucus; Dose: 25.0 mg/kg
  Degree of Gastric Injury Avg. score ± e.s.: 3.81 ± 0.35
Gastric mucus; Dose: 50.0 mg/kg
  Degree of Gastric Injury Avg Score ± e.s.: 4.80 ± 0.50
[2]; Dose: 12.5 mg/kg
  Analgesic Activity (% Inhibition) Avg. Score ± e.s.: 53.23 ± 5.53%
[2]; Dose: 25.0 mg/kg
  Analgesic Activity (% Inhibition) Avg. Score ± e.s.: 67.26 ± 4.62%

## O=C(O)Cc1ccccc1Nc1c(Cl)cccc1Cl [diclofenac, 2-((2,6 dichlorophenyl)amino)phenyl acetic (diclofenac) acid]
[3]
  degradation / related substances: not degraded
